# Test results as given in US4431650A, “Esters of benzofuranyl acids” (Union Carbide Corporation, priority 1980, dated 1984).
# What was measured:
# Assay type in all cases: in vivo
# [1] = test system: bean aphid (Aphis fabae Scop.); test: Bean Aphid Foliage Spray Test; details: foliar, foliage spray on nasturtium plants, adults and nymphs, mortality after 24 hour holding period, read-out: LD50 Aphid
# Method: (§1) Suspensions of the test compounds were prepared by dissolving one gram of compound in 50 milliliters of acetone in which had been dissolved 0.1 gram (10 percent of the weight of compound) of an alkylphenoxy polyethoxyethanol surfactant, as an emulsifying or dispersing agent. The resulting solution was mixed into 150 milliliters of water to give roughly 200 milliliters of a suspension containing the compound in finely divided form. The thus-prepared stock suspension contained 0.5 percent by weight of compound. The concentrations in parts per million by weight employed in the tests described hereinbelow were obtained by appropriate dilutions of the stock suspension with water. The test procedures were as follows:
# Adults and nymphal stages of the bean aphid (Aphis fabae Scop.) reared on potted dwarf nasturtium plants at 65°-70° F. and 50-70 percent relative humidity, constituted the test insects. For testing purposes, the number of aphids per pot was standardized to 100-150 by trimming plants containing excess aphids. […]
# The potted plants (one pot per compound tested) infested with 100-150 aphids, were placed on a revolving turntable and sprayed with 100-110 milliliters of test compound formulation by use of a DeVilbiss spray gun set at 40 psig. air pressure. […] Percent mortality was recorded for various concentration levels. […]
# [2] = test system: two-spotted mite (Tetranychus urticae Koch); test: Mite Foliage Spray Test; details: foliar, 144 h, foliage spray on bean plants, adults and nymphs, mortality count of motile forms after six days, read-out: LD50 Mite
# Method: as §1
# Adults and nymphal stage of the two-spotted mite (Tetranychus urticae Koch), reared on Tendergreen bean plants at 80±5 percent relative humidity, were the test organisms. Infested leaves from a stock culture were placed on the primary leaves of two bean plants six to eight inches in height, growing in a two-and-a-half inch clay pot. 150-200 Mites, a sufficient number for testing, transferred from the excised leaves to the fresh plants in a period of twenty four hours. Following the twenty four hour transfer period, the excised leaves were removed from the infested plants. […]
# [3] = test system: southern armyworm (Spodoptera eridania, (Cram.)); test: Southern Armyworm Leaf Spray Bait Test; details: 72 h, larvae on sprayed bean leaves, held three days, read-out: LD50 SAW
# Method: as §1
# Larvae of the southern armyworm (Spodoptera eridania, (Cram.)), reared on Tendergreen bean plants at a temperature of 80°±5° F. and a relative humidity of 50± percent, constituted the test insects.
# The test compounds were formulated by diluting the stock suspension with water to give a suspension containing 500 parts of test compound per million parts of final formulation. Potted Tendergreen bean plants of standard height and age were placed on a revolving turntable and sprayed with 100-110 milliliter of test compound formulation by use of a DeVilbiss spray gun set at 10 psig air pressure. […] Percent mortality was recorded for various concentration levels. […]
# [4] = test system: Mexican bean beetle (Epilachna variestis, Muls.); test: Mexican Bean Beetle Leaf Spray Test; details: 72 h, read-out: LD50 MBB
# Method: as §1
# Fourth instar larvae of the Mexican bean beetle (Epilachna variestis, Muls.), reared on Tendergreen bean plants at a temperature of 80°±5° F. and 50±5 percent relative humidity, were the test insects.
# The test compounds were formulated by diluting the stock suspension with water to give a suspension containing 500 parts of test compound per million parts of final formulation. Tendergreen bean plants of standard height and age were placed on a revolving turntable and sprayed with 100-110 milliliters of test compound formulation by use of a DeVilbiss spray gun set at 10 psig air pressure. This application, which lasted 25 seconds, was sufficient to wet plants to run-off. […]
# [5] = test system: house flies (Musca domestica, L.); test: Fly Bait Test; details: po, 24 h, adult flies, bait in 10 percent sugar solution, twenty four hours, read-out: LD50 HF
# Method: as §1
# Four to six day old adult house flies (Musca domestica, L.), reared according to the specifications of the Chemical Specialities Manufacturing Association (Blue Book, McNair-Dorland Co., N.Y. 1954; pages 243-244, 261) under controlled conditions of 80± F. and 50±5 percent relative humidity, were the test insects. The flies were immobilized by anesthetizing with carbon dioxide and twenty five immobilized individuals,males and females, were transferred to a cage consisting of a standard food strainer about five inches in diameter which was inverted over a wrapping-paper-covered surface. […]
# Corn = test: Phytotoxicity, corn; design: key: 1 = No plant injury at a dose of 2500 ppm; details: rating; dose of 2500 ppm
# Cott. = test: Phytotoxicity, cotton; design: key: 1 = No plant injury at a dose of 2500 ppm; details: rating; dose of 2500 ppm
# Soybean = test: Phytotoxicity, soybean; design: key: 1 = No plant injury at a dose of 2500 ppm; details: rating; dose of 2500 ppm
SMILES,LC50 [1] [µg/mL],LC50 [2] [µg/mL],LC50 [3] [µg/mL],LC50 [4] [µg/mL],LC50 [5] [µg/mL],Phytotoxicity Corn (Corn),Phytotoxicity Cott. (Cott.),Phytotoxicity Soybean (Soybean)
C#CC(OC(=O)C(c1cc2ccccc2o1)C(C)C)c1cccc(Oc2ccccc2)c1 (stereo not shown),0.8,200,52,5,~180,1,1,1
CC(C)C(C(=O)OC(C#N)c1cccc(Oc2ccccc2)c1)c1cc2ccccc2o1 (stereo not shown),~0.7,210,~45,11,23,1,1,1
